Measurements published in patent publication US20070160554A1, “Acyl ribonucleosides and acyl deoxyribonucleosides, compositions of, and methods of making same” (COGNIS IP MANAGEMENT GMBH, priority 2003, published 2007).
Like-named read-outs stand apart in the source and are kept apart here.

Tests used:
[1] = system: Melanocytes (B16 cell line); assay: Inhibition of melanin synthesis in B16 melanocytes (melanin by optical density at 475 nm, cellular proteins by Bradford); assay type: cell-based, mouse; conditions: for effect on the rate of released melanin / inhibition of melanin synthesis: B16 melanocytes, at concentrations not toxic to human fibroblasts; for Rate of Melanin / Rate of cellular proteins: B16, 3 days
Description: Melanin is the pigment responsible for the colour of skin and hairs. Melanin synthesis takes place in specific organelles so called melanosomes in human melanocytes located in the basal layer of the human epidermis. This synthesis begins by oxidation of tyrosine to DOPA (dihydroxy-phenyl-alanine) by tyrosinase and then DOPA polymerises to melanin which is stored in melanosomes.
Melanocytes (B16 cell line: B16 is the name of the mouse melanoma cells used in this test.) were inoculated in standard cell culture medium of foetal calf serum (FCS). […] Uridine palmitate and ulidine stearate were added to the culture medium starting from a stock solution at 1% (w/v) in DMSO. After an incubation of 3 days, the number of viable cells was determined by the evaluation of the levels of cellularproteins (Bradford's method) and the level of synthesized melanin was measured by recording the optical density at 475 nm of cell's homogenate. The results are expressed in table 4.

human fibroblasts [2] = conditions: for Proteins (level of cellular proteins) / LD50: 3 days; for LD50: human
Description: In a first experiment, human fibroblasts were inoculated in a standard cell culture medium of foetal calf serum (or FCS). After an incubation of 1 day at 37° C. under an atmosphere of air, enriched to a carbon dioxide content of 5%, the growth medium was exchanged for a standard medium with a range of concentrations of uridine, uridine palmitate and uridine stearate.

human fibroblasts [3] = assay: Non-toxicity on quiescent human fibroblasts (second experiment: DNA, ATP, proteins, GSH/proteins); assay type: cell-based; conditions: for ATP / DNA / GSH/proteins / Proteins: quiescent fibroblasts, 3 days; for modification of growth, energetic metabolism and protein metabolism of the fibroblasts: human fibroblasts in vitro
Description: Uridine palmitate and uridine stearate were added in the culture medium starting from a stock solution at 1% (w/v) in DMSO. After an incubation of 3 days the number of viable cells was determined by evaluation of the levels of cellular DNA (fluorescent probe), ATP, proteins (Bradford's method) and the rate of cellular GSH (GSH is glutathione) normalised to the level of cellular proteins.

CCCCCCCCCCCCCCCC(=O)O[C@@H]1[C@H](O)[C@@H](CO)O[C@H]1n1ccc(=O)[nH]c1=O [Mono-O-palmitoyl uridine, Mono-O-Palmitoyl Uridine]
effect on the rate of released melanin / inhibition of melanin synthesis [1]: strongly decreased the rate of released melanin
Rate of Melanin ([1]; dose 0.001 % w/v): 98 % against control
Rate of cellular proteins ([1]; dose 0.001 % w/v): 100 % against control
Rate of Melanin ([1]; dose 0.003 % w/v): 69 % against control
Rate of cellular proteins ([1]; dose 0.003 % w/v): 95 % against control
Rate of Melanin ([1]; dose 0.01 % w/v): 44 % against control
Rate of cellular proteins ([1]; dose 0.01 % w/v): 110 % against control
toxic effects on growing human fibroblasts cultured in vitro (human fibroblasts [2]): not shown any toxic effects
Proteins (level of cellular proteins) (human fibroblasts [2]; dose 0.003 % w/v): 92 %/control
Proteins (level of cellular proteins) (human fibroblasts [2]; dose 0.01 % w/v): 97 %/control
LD50 (human fibroblasts [2]): >0.01% w/v
ATP (human fibroblasts [3]; dose 0,001 % w/v): 111 %/control
DNA (human fibroblasts [3]; dose 0,001 % w/v): 92 %/control
GSH/proteins (human fibroblasts [3]; dose 0,001 % w/v): 103 %/control
Proteins (human fibroblasts [3]; dose 0,001 % w/v): 98 %/control
ATP (human fibroblasts [3]; dose 0,003 % w/v): 86 %/control
DNA (human fibroblasts [3]; dose 0,003 % w/v): 83 %/control
GSH/proteins (human fibroblasts [3]; dose 0,003 % w/v): 108 %/control
Proteins (human fibroblasts [3]; dose 0,003 % w/v): 91 %/control
modification of growth, energetic metabolism and protein metabolism of the fibroblasts (human fibroblasts [3]): not modified the growth of the fibroblasts

CCCCCCCCCCCCCCCCCC(=O)O[C@@H]1[C@H](O)[C@@H](CO)O[C@H]1n1ccc(=O)[nH]c1=O [Mono-O-stearoyl uridine, Mono-O-Stearoyl Uridine]
effect on the rate of released melanin / inhibition of melanin synthesis [1]: strongly decreased the rate of released melanin
Rate of Melanin ([1]; dose 0.001 % w/v): 84 % against control
Rate of cellular proteins ([1]; dose 0.001 % w/v): 98 % against control
Rate of Melanin ([1]; dose 0.003 % w/v): 65 % against control
Rate of cellular proteins ([1]; dose 0.003 % w/v): 92 % against control
Rate of Melanin ([1]; dose 0.01 % w/v): 19 % against control
Rate of cellular proteins ([1]; dose 0.01 % w/v): 99 % against control
toxic effects on growing human fibroblasts cultured in vitro (human fibroblasts [2]): not shown any toxic effects
Proteins (level of cellular proteins) (human fibroblasts [2]; dose 0.0005 % w/v): 90 %/control
Proteins (level of cellular proteins) (human fibroblasts [2]; dose 0.0015 % w/v): 87 %/control
LD50 (human fibroblasts [2]): >0.01% w/v
ATP (human fibroblasts [3]; dose 0,0015 % w/v): 91 %/control
DNA (human fibroblasts [3]; dose 0,0015 % w/v): 94 %/control
GSH/proteins (human fibroblasts [3]; dose 0,0015 % w/v): 98 %/control
Proteins (human fibroblasts [3]; dose 0,0015 % w/v): 96 %/control
ATP (human fibroblasts [3]; dose 0,005 % w/v): 92 %/control
DNA (human fibroblasts [3]; dose 0,005 % w/v): 100 %/control
GSH/proteins (human fibroblasts [3]; dose 0,005 % w/v): 135 %/control
Proteins (human fibroblasts [3]; dose 0,005 % w/v): 95 %/control
modification of growth, energetic metabolism and protein metabolism of the fibroblasts (human fibroblasts [3]): not modified the growth of the fibroblasts

CCCC(=O)OC[C@H]1O[C@@H](n2ccc(=O)[nH]c2=O)[C@H](OC(=O)CCC)[C@@H]1OC(=O)CCC [Tri-O-Butyryl-Uridine, reference compound]
effect on the rate of released melanin / inhibition of melanin synthesis [1]: no or only a very poor effect
Rate of Melanin ([1]; dose 0.001 % w/v): 106 % against control
Rate of cellular proteins ([1]; dose 0.001 % w/v): 100 % against control
Rate of Melanin ([1]; dose 0.003 % w/v): 106 % against control
Rate of cellular proteins ([1]; dose 0.003 % w/v): 106 % against control
Rate of Melanin ([1]; dose 0.01 % w/v): 105 % against control
Rate of cellular proteins ([1]; dose 0.01 % w/v): 103 % against control

O=c1ccn([C@@H]2O[C@H](CO)[C@@H](O)[C@H]2O)c(=O)[nH]1 [Uridine, uridine, reference compound]
effect on the rate of released melanin / inhibition of melanin synthesis [1]: no or only a very poor effect
Rate of Melanin ([1]; dose 0.03 % w/v): 92 % against control
Rate of cellular proteins ([1]; dose 0.03 % w/v): 94 % against control
Rate of Melanin ([1]; dose 0.1 % w/v): 92 % against control
Rate of cellular proteins ([1]; dose 0.1 % w/v): 97 % against control
Proteins (level of cellular proteins) (human fibroblasts [2]; dose 0.03 % w/v): 104 %/control
Proteins (level of cellular proteins) (human fibroblasts [2]; dose 0.1 % w/v): 99 %/control
ATP (human fibroblasts [3]; dose 0,01 % w/v): 100 %/control
DNA (human fibroblasts [3]; dose 0,01 % w/v): 103 %/control
GSH/proteins (human fibroblasts [3]; dose 0,01 % w/v): 107 %/control
Proteins (human fibroblasts [3]; dose 0,01 % w/v): 100 %/control
ATP (human fibroblasts [3]; dose 0,03 % w/v): 89 %/control
DNA (human fibroblasts [3]; dose 0,03 % w/v): 94 %/control
GSH/proteins (human fibroblasts [3]; dose 0,03 % w/v): 102 %/control
Proteins (human fibroblasts [3]; dose 0,03 % w/v): 104 %/control
